Patent publication US20130023504A1, “Modulation of Prostaglandin/Cyclooxygenase Metabolic Pathways” (HUNTER-FLEMING LIMITED, priority 2006, published 2013)
Marks after values point to notes of the source that are not given here.

Experiments:
[1] = system: human peripheral blood mononuclear cells; test: Prostaglandin (PGD2, PGE2, 15d-PGJ2) production by human peripheral blood mononuclear cells with/without TNF-α, EIA (Example 2); format: cell-based
Procedure: Mononuclear cells (monocytes and lymphocytes) were prepared by subjecting 48 ml of whole human blood to Ficoll/hypaque density centrifugation. Blood was layered on top of the ficoll (density=1.077 g/ml) and centrifuged at 400 g for 1 hour (22° C.), after which cells at the interphase were removed by pipette and transferred to fresh tubes. Tubes were filled with RPMI 1640 culture medium (2 volumes) thoroughly mixed and then centrifuged at 400 g for 5 minutes (22° C.). The supernatant was discarded and the cell pellet was re-suspended in RPMI 1640 culture medium and the volume adjusted to give the appropriate number of cells per incubation as indicated in the results section below. Cells were incubated in sterile plastic 1.5 ml tubes in a final volume of 1 ml RPMI 1640 medium for 18 hours at 37° C., 5% CO2 in air and 100% humidity. 7β-OH-EPIA was then added and cells incubated for a further hour at 37° C. before adding recombinant human Tumour Necrosis Factor-α (TNF-α) and incubations continued for a further 3 hours. 7β-OH-EPIA was prepared in dimethyl sulphoxide (DMSO), all remaining agents were prepared in RPMI 1640 medium. The requisite controls contained either medium or the same concentration of DMSO which was always <0.1% v/v. Incubations were terminated by centrifuging tubes at 11,000 g for 30 seconds at 22° C. and transferring the supernatants to fresh 1.5 ml tubes. Samples were then either processed immediately for PGD2 estimation as described below or stored at −20° C. prior to PGE2 or 15d-PGJ2 measurement.
Prostaglandin production by human monocytic cells in response to 7β-OH-EPIA in either the absence or presence of stimulation with TNF-α was determined by measuring the extracellular levels of eicosanoid using commercially available EIA kits.
PGD2 cannot be assayed directly from cell supernatants because it is chemically unstable and rapidly degrades to a number of J series prostaglandins including, PGJ2, Δ^12-PGJ2, and 15-deoxy-Δ^12,14-PGJ2. In order to circumvent this problem, unstable PGD2 was chemically treated to give a stable derivative, in this case prostaglandin D2-Methoxamine (PGD2-MOX) which was be stored for subsequent analysis. Immediately following termination of incubations, 100 μl of sample supernatant was added to 1.5 ml tubes containing 100 μl of a Methyl Oximating Reagent (methoxy)amine hydrochloride (MOX-HCl) and sodium acetate dissolved in a 10:90 v/v, ethanol/water solution. Tubes were then placed in a water bath and the reaction allowed to proceed for 30 minutes at 60° C. At the end of this period samples were stored at −80° C. Levels of PGD2 were subsequently estimated using Cayman Chemical's Prostaglandin D2-MOX EIA Kit (Cat. No. 512011).
Extracellular levels of PGE2 were estimated using R & D Systems' Parameter PGE2 EIA Kit according to the manufacturer's instructions for the high sensitivity protocol.
Extracellular levels of 15d-PGJ2 were estimated using Assay Designs' Correlate-EIA Prostaglandin 15-deoxy-Δ^12,14-prostaglandin J2 EIA Kit (Cat. No. 900-023) according to the manufacturer's instructions.
Results are expressed as the mean±s.d. for n=3 incubations. An unpaired Students t-Test was used to determine the probability (P) that two sets of data were different from each other. The difference was considered to be significant when P<0.05. Statistical calculations were carried out on an Apple Macintosh computer using the software package Statview, from Abacus Concepts Inc.

[2] = system: m-PGES1 mRNA; test: m-PGES1 mRNA in human PBMC with and without TNF-α, quantitative RT-PCR; format: cell-based
Procedure: Whole blood was collected from donors in EDTA-supplemented pouches at the Etablissement Français du Sang (Brest, France). The PBMC were isolated then from whole blood under sterile conditions within 36 hours after collection. Gradient density centrifugation was carried out on Ficoll (Eurobio). After washing in RPMI 1640 medium (Eurobio), cells were suspended in RPMI 1640 medium supplemented with 10% heat-inactivated fetal calf serum (Eurobio), 2 mM glutamine (D. Dutscher), 100 U of penicillin/ml (D. Dutscher), and 100 μg of streptomycin/ml (D. Dutscher). Monocytes were selected by plastic adherence for 1 h and approximately 10^7 cells were plated in 6-well tissue culture plates (3 mL medium per well). All incubations were performed in a humidified incubator at 37° C. and 5% CO2. Cells were recovered and dispersed in 2 ml fresh incubation medium supplemented with either 7β-hydroxyEPIA, 7β-hydroxy-DHEA, or 7α-hydroxy-DHEA (in 20 μL ethanol) in the presence or absence of 0.01 μg/mL TNF-α (Sigma-Aldrich). Control incubations contained 20 μl ethanol but no steroid. Supernatants were collected after 4 h and 24 hours incubations for measurement of their PG contents and cells were used for subsequent RNA isolation. A single step extraction method using the Trizol Reagent (Invitrogen, Cergy-Pontoise, France) provided total RNA.
cDNAs were synthesized from TURBO DNase I—treated RNA (Ambion, Huntingdon, UK) using the Superscript first strand synthesis system kit (Invitrogen). RT-PCR amplification mixtures (50 μL) contained 2.5× RealMaster Mix/20×SYBR solution (11.25 μL) (Eppendorf, Le Pecq, France) and 200 nM forward and reverse primers. Reactions were run on a RealPlex ep gradient S mastercycler (Eppendorf). The cycling conditions were 10 minutes at 95° C. and 45 cycles at 95° C., 55° C. and 68° C. for 15 seconds, 30 seconds and 30 seconds, respectively. Each assay included a standard curve of four serial dilution points of control cDNA. The HPRT1 housekeeping gene was used for quantification. All oligonucleotide primers (Table 2) were synthesized by Genecust/Distribio (Evry, France). The specificity of the amplified product was monitored by examining the melting curve of the product and confirmed by analysis on agarose gel electrophoresis.
All assays were carried out in triplicate and results were plotted as mean±S.E.M. One-way analysis of variance was performed followed by Duncan's multiple range tests in order to compare the differences between groups. Differences were considered statistically significant when p<0.05.

Compound: CC12CCC3C(C1CCC2=O)[C@@H](O)C[C@H]1C[C@@H](O)CCC31C (stereo partly drawn) [Compound 7β-OH-EPIA, 7β-hydroxy-EPIAndrosterone]
- effect on TNF-α-induced PGD2 biosynthesis ([1]; 0.1 nM-100 nM, TNF-α (0.5 μg/ml)): no effect
- increase in 15d-PGJ2 production ([1]; 0.1 nM-1000 nM, in the presence of TNF-α, vs respective control): 2-2.5 fold
- increase in 15d-PGJ2 levels ([1]; 0.1 nM-1000 nM, without TNF-α, vs DMSO controls): 9-12 fold
- 15d-PGJ2 levels in cell supernatants ([1]; 0.1 nM, 4 hours, without TNF-α): 506 ± 101 pg/mL
- 15d-PGJ2 levels in cell supernatants ([1]; 0.1 nM, TNF-α (10 ng/ml)): 348 ± 48 pg/mL
- PGE2 levels compared to DMSO controls ([1]; 1 nM-1000 nM, 4 hours, without TNF-α): not statistically significantly different
- 15d-PGJ2 levels in cell supernatants ([1]; 1 nM, 4 hours, without TNF-α): 539 ± 51 pg/mL
- 15d-PGJ2 levels in cell supernatants ([1]; 1 nM, TNF-α (10 ng/ml)): 334 ± 24 pg/mL
- PGE2 levels in cell supernatants ([1]; 1 nM, TNF-α (10 ng/ml)): 75 ± 25 pg/mL
- 15d-PGJ2 levels in cell supernatants ([1]; 10 nM, 4 hours, without TNF-α): 520 ± 45 pg/mL
- 15d-PGJ2 levels in cell supernatants ([1]; 10 nM, TNF-α (10 ng/ml)): 356 ± 85 pg/mL
- PGE2 levels in cell supernatants ([1]; 10 nM, TNF-α (10 ng/ml)): 82 ± 23 pg/mL
- 15d-PGJ2 levels in cell supernatants ([1]; 100 nM, 4 hours, without TNF-α): 450 ± 133 pg/mL
- PGD2 levels in cell supernatants ([1]; 100 nM, 4 hours, without TNF-α): 102 ± 24 pg/mL
- 15d-PGJ2 levels in cell supernatants ([1]; 100 nM, TNF-α (10 ng/ml)): 406 ± 30 pg/mL
- PGE2 levels in cell supernatants ([1]; 100 nM, TNF-α (10 ng/ml)): 74 ± 12 pg/mL
- 15d-PGJ2 levels in cell supernatants ([1]; 1000 nM, 4 hours, without TNF-α): 590 ± 84 pg/mL
- 15d-PGJ2 levels in cell supernatants ([1]; 1000 nM, TNF-α (10 ng/ml)): 318 ± 100 pg/mL
- effect on TNF-α-induced PGE2 production ([1]; 1000 nM, TNF-α (10 ng/ml)): no effect
- PGD2 levels in cell supernatants ([1]; 1000 nM, TNF-α (0.5 μg/ml)): 164 ± 31 pg/mL
- mPGES1 (mRNA), mRNA production relative to controls ([2]; 1 nM + TNF-α (10 ng/mL), 4 h): 1.11 ± 0.235
- mPGES1 (mRNA), mRNA production relative to controls ([2]; 1 nM + TNF-α (10 ng/mL), 24 h): 21.6 ± 4.28^
- mPGES1 (mRNA), mRNA production relative to controls ([2]; 1 nM, 4 h, without TNF-α): 0.76 ± 0.053^b
- mPGES1 (mRNA), mRNA production relative to controls ([2]; 1 nM, 24 h, without TNF-α): 1.77 ± 0.324^a
- mPGES1 (mRNA), mRNA production relative to controls ([2]; 10 nM + TNF-α (10 ng/mL), 4 h): 1.15 ± 0.183
- mPGES1 (mRNA), mRNA production relative to controls ([2]; 10 nM + TNF-α (10 ng/mL), 24 h): 6.29 ± 1.131^d
- mPGES1 (mRNA), mRNA production relative to controls ([2]; 10 nM, 4 h, without TNF-α): 0.94 ± 0.067
- mPGES1 (mRNA), mRNA production relative to controls ([2]; 10 nM, 24 h, without TNF-α): 3.61 ± 0.662^a
- mPGES1 (mRNA), mRNA production relative to controls ([2]; 100 nM + TNF-α (10 ng/mL), 4 h): 1.29 ± 0.323
- mPGES1 (mRNA), mRNA production relative to controls ([2]; 100 nM + TNF-α (10 ng/mL), 24 h): 6.79 ± 2.898^d
- mPGES1 (mRNA), mRNA production relative to controls ([2]; 100 nM, 4 h, without TNF-α): 0.71 ± 0.058^b
- mPGES1 (mRNA), mRNA production relative to controls ([2]; 100 nM, 24 h, without TNF-α): 2.63 ± 0.475^a
